Columns and labels:
Format in all cases: cell-based, human
[1] = tested on: Langerhans cells generated in vitro; test: Chemoattraction and migration of Langerhans cells of Example 6
[2] = tested on: dendritic cells generated in vitro (CCR6 receptor); test: Chemoattraction of undifferentiated immature dendritic cells (CCR6 functionality); conditions: day 6 cells of Example 4
Experimental: The culture medium is initially supplemented with a third cytokine, namely the cytokine IL-13 at a rate of 10 ng/ml. Before 2 days of culture at the most, the same culture medium devoid of IL-13 is added up to day 6 of culture.

[3] = tested on: Langerin+LC population; test: Maturation marker DC-LAMP expression after TNFα, Langerhans cells; conditions: 200 IU/ml for 48 hours from day 6
Experimental: (§1) On day 6, the cytokine TNFα is added at a rate of 200 IU/ml for 48 h.
(§2) The advantage of a substantially homogeneous dual population of LC and IDC is the possibility of interacting with both cell types as in the in vivo situation. To study the maturation pathways of LC and IDC generated in vitro, we analyzed the intracytoplasmic expression of maturation marker DC-LAMP on both LC and IDC. To this end, the experiments were performed according to the following protocol: • 2.10^5 cells of a mixed population comprising LC and IDC generated in vitro are incubated successively with: • either 5 microliters of anti-DC-SIGN antibody (2 micrograms/milliliter) or 10 microliters of anti-Langerin antibody (2 micrograms/milliliter), for 30 minutes at 4° C.; • 10 microliters of anti-mouse goat antibody coupled with the fluorochrom FITC (Fluorescein IsoThioCyanate) at the concentration of 1 microgram/milliliter for 30 min at 4° C.; • blocking with normal mouse serum diluted to 1/20; • 10 microliters of anti-DC-LAMP antibody coupled with fluorochrom PE (PhycoErythrin) at the concentration of 1 microgram/milliliter for 30 minutes at 4° C. • the results are expressed as the percentage of LC which are DC-LAMP positive and IDC which are DC-LAMP positive. […]

[4] = tested on: IDC (DC-SIGN+); test: Maturation marker DC-LAMP expression after TNFα, interstitial dendritic cells; conditions: 200 IU/ml for 48 hours from day 6
Experimental: as §1, §2

[5] = tested on: dendritic cells generated in vitro (CCR7 receptor); test: Chemoattraction of activated mature dendritic cells (CCR7 functionality); conditions: activated mature cells of Example 8 (TNFα more than 20 hours)
Experimental: Within the framework of the invention, the culture medium is initially supplemented with a third cytokine, namely the cytokine IL-13 at a rate of 10 ng/ml. The culture is carried out up to day 6, irrespective of the incubation time of the cytokine IL-13.

Molecule: IL-1β: cytokine under whose effect Langerhans cells migrate
- migration of Langerhans cells [1]: migrating

Molecule: MIP-3α: ligand of the specific receptor CCR6
- chemoattraction of dendritic cells [2]: strongly chemoattracted
- chemoattraction of Langerhans cells [1]: capable of being chemoattracted

Molecule: TNFα
- percentage of LC which are DC-LAMP positive [3]: 50%
- expression of maturation marker DC-LAMP on IDC [4]: do not express

B1: MIP-3β: ligand of the specific receptor CCR7 (protein, UniProt Q99731 22-98, looked up)
C-C motif chemokine 19: GTNDAEDCCLSVTQKPIPGYIVRNFHYLLIKDGCRVPAVVFTTLRGRQLCAPPDQPWVERIIQRLQRTSAKMKRRSS
- chemoattraction of dendritic cells [5]: strongly chemoattracted

Source: US20050008623A1, “In vitro production of dendritic cells from CD14+ monocytes” (priority 2001, published 2005)
